What is called IC50 is the concentration that gives 50% inhibition.

Read-outs that look alike come from different tables or passages of the source.

This note sets out measurements from patent US12215104B2, “Anti-biofilm compounds” (UNIVERSITY OF LOUISVILLE RESEARCH FOUNDATION, INC., priority 2018, dated 2025).

The test system of data set [1] is P. gingivalis adherence to S. gordonii. The experiment in a line: Inhibition of P. gingivalis adherence to S. gordonii in two-species biofilm model. The format is cell-based, P. gingivalis ATCC33277; S. gordonii DL-1. An excerpt:
To assess the functional activity of the click products, compounds 28-57 (Groups I and II) and 90-124 (Group III) were examined for inhibition of P. gingivalis adherence to S. gordonii using an established biofilm model system as described in the Section 4.2.1 [41]. For each compound tested, an IC50 value for adherence inhibition was approximated after quantifying the ratio of green to red fluorescence and these values are shown in Tables 2, 3 and 4. Compounds were classified as strong (IC50<10 μM), moderate (IC50=10-20 μM) or weak (IC50>20 μM) inhibitors of adherence. Twelve compounds were identified as strong inhibitors and an additional ten compounds were classified as moderate inhibitors. […] Compounds 54, 56, 93, 95, 100, 102, 103, and 115 were also tested to determine if they affect the growth of P. gingivalis or S. gordonii. […] The sulfoxide group does impart asymmetry to the molecule; however, the mixture of enantiomers, assuming the peracid oxidation was racemic, was not separated and bioassayed. The Group III active compounds (95-117) all contain the 1,3,5-trisubstituted-2,4,6-triazine modeled after the Katzenellenbogen rendering of an active motif whereby the key leucine residues which mimicked the VXXLL receptor box lie in a triangular arrangement. While the original iteration of the Katzenellenbogen VXXLL mimics were the hydrophobic 3,5-disubstituted-di-N-alkyamino-triazine motifs, we introduced the hydrophobic 2- and 4-(fluorophenyl)amino groups at positions 3 and 5 of the 2,4,6-triazine (See Compounds 102, 111, 115, 122).
P. gingivalis ATCC33277 was grown in reduced trypticase soy broth (Difco) supplemented with 0.5 percent yeast extract, 1 μg/mL menadione, and 5 μg/mL hemin. Twenty five milliliters of medium were reduced for 24 h under anaerobic conditions by equilibrating in an atmosphere consisting of 10% CO2, 10% H2, and 80% N2. Following equilibration, P. gingivalis was inoculated in the media and grown for 48 h at 37° C. under anaerobic conditions. S. gordonii DL-1 (1) was cultured aerobically without shaking in brain heart infusion (BHI) broth supplemented with 1 percent yeast extract for 16 hours at 37° C. For some compounds that inhibited P. gingivalis adherence to S. gordonii, we determined their affect the planktonic growth of P. gingivalis and S. gordonii. Broth cultures were grown as described above and compared to cultures grown in the absence of the compound. Cell density of each culture was determined by measuring the optical density at 600 nm (O.D.600 nm) after 24 h of growth. The percent growth inhibition/stimulation was calculated using the following equation: [(O.D.600 nm of the control/O.D.600 nm of the culture grown in the presence of compound)−1]×100.
Two species biofilms were formed essentially as previously described. To prepare bacterial cells for biofilm culture, 10 ml of an overnight S. gordonii culture was centrifuged at 5600 rpm for 5 min and the cell pellet was suspended in 1 mL sterile PBS. Subsequently, 20 μL of 5 mg/ml hexidium iodide (Molecular Probes) was added to the cell suspension and incubated for 15 min with gentle shaking at room temperature in the dark. The labeled cells were centrifuged as described above, washed with phosphate buffered saline (10 mM Na2HPO4, […], […], and 2.7 mM KCl, pH 7.2; [PBS]) and the cell pellet was suspended in PBS at a final O.D.600 nm of 0.8. Similarly, 10 mL of a 48 h culture of P. gingivalis was centrifuged at 5600 rpm for 15 min, the cell pellet was suspended in 1 mL PBS and 20 μl of 5(6)-carboxyfluorescein N-hydroxysuccinimide ester (4 mg/ml, Molecular Probes, Inc.) was added. After incubation for 30 min with gentle shaking at room temperature in the dark, the suspension was centrifuged and washed as described above and suspended in PBS at a final O.D.600 nm of 0.4. […]

In data set [2] the test system is pre-existing 3-species biofilm. In words: Disruption of a pre-existing 3-species biofilm in vitro. To be noted: 20 μM. The format is cell-based.
In data set [3] the test system is gingival keratinocytes. The experiment in a line: Induction of apoptosis in gingival keratinocytes. The format is cell-based.
Setting [4] is: read-out: IC50 for inhibition of adherence of P. gingivalis to S. gordonii.

As for `Fc1ccc(Nc2nc(Nc3ccc(F)cc3)nc(-c3cn(-c4cccc(-c5nc(-c6ccccc6)c(-c6ccccc6)o5)c4)nn3)n2)cc1` [Compound 111], the values for the 50% inhibitory concentration (IC50) in data set [1] (Group III) and in data set [1] (setting [4]) were 4.3 µM and 2.3 to 5.3 µM, respectively. The “disruption of pre-existing 3-species biofilm” value in data set [2] (time treated 1 h) is reported as 0.62; in data set [2] (time treated 2 h) it was 7.33; in data set [2] (time treated 3 h), 56.63. Moreover, the early apoptosis in data set [3] (5 μM, gingival keratinocytes) is reported as 4.96; in data set [3] (20 μM, gingival keratinocytes), 5.06; in data set [3] (60 μM, gingival keratinocytes), 5.60. In addition, the late apoptosis in data set [3] (5 μM, gingival keratinocytes) worked out at 2.36; in data set [3] (20 μM, gingival keratinocytes) it was 3.39; in data set [3] (60 μM, gingival keratinocytes), 4.38. Also, the live cells in data set [3] (5 μM, gingival keratinocytes) is given as 89.25; in data set [3] (20 μM, gingival keratinocytes), 87.95; in data set [3] (60 μM, gingival keratinocytes) it was 84.40.

For `Fc1ccc(Nc2nc(Nc3ccc(F)cc3)nc(-c3cn(-c4ccc(-c5nc(-c6ccccc6)c(-c6ccccc6)o5)cc4)nn3)n2)cc1` [Compound 112], the half-inhibitory concentration (IC50) in data set [1] (Group III) is greater than 60 µM.

In turn, `Fc1ccc(Nc2nc(Nc3ccc(F)cc3)nc(-c3cn(-c4ccccc4-c4nc(-c5ccc(F)cc5)c(-c5ccc(F)cc5)o4)nn3)n2)cc1` [Compound 113] yielded an IC50 in data set [1] (Group III) of 49.2 µM.

Turning to `Fc1ccc(Nc2nc(Nc3ccc(F)cc3)nc(-c3cn(-c4cccc(-c5nc(-c6ccc(F)cc6)c(-c6ccc(F)cc6)o5)c4)nn3)n2)cc1` [Compound 114], in data set [1] (Group III), the IC50 was greater than 60 µM.

In turn, `Fc1ccc(Nc2nc(Nc3ccc(F)cc3)nc(-c3cn(-c4ccccc4-c4nc(-c5ccc(Cl)cc5)c(-c5ccc(Cl)cc5)o4)nn3)n2)cc1` [Compound 116] displayed an IC50 in data set [1] (Group III) greater than 40 µM.

For the compound `Fc1ccc(Nc2nc(Nc3ccc(F)cc3)nc(-c3cn(-c4cccc(-c5nc(-c6ccc(Cl)cc6)c(-c6ccc(Cl)cc6)o5)c4)nn3)n2)cc1` [Compound 117], the figures for the IC50 in data set [1] (Group III) and in data set [1] (setting [4]) were 27.8 µM and 2.3 to 5.3 µM, respectively.

`Fc1ccc(Nc2nc(Nc3ccc(F)cc3)nc(-c3cn(-c4ccc(-c5nc(-c6ccc(Cl)cc6)c(-c6ccc(Cl)cc6)o5)cc4)nn3)n2)cc1` [Compound 118]: the concentration for half-maximal inhibition (IC50) in data set [1] (Group III) came to 13.3 µM.

In data set [1] (Group III), `COc1ccc(-c2nc(-c3ccccc3-n3cc(-c4nc(Nc5ccc(F)cc5)nc(Nc5ccc(F)cc5)n4)nn3)oc2-c2ccc(OC)cc2)cc1` [Compound 119] came in with an IC50 greater than 60 µM.

For the compound `COc1ccc(-c2nc(-c3cccc(-n4cc(-c5nc(Nc6ccc(F)cc6)nc(Nc6ccc(F)cc6)n5)nn4)c3)oc2-c2ccc(OC)cc2)cc1` [Compound 120], the IC50 in data set [1] (Group III) is greater than 60 µM.

Compound `COc1ccc(-c2nc(-c3ccc(-n4cc(-c5nc(Nc6ccc(F)cc6)nc(Nc6ccc(F)cc6)n5)nn4)cc3)oc2-c2ccc(OC)cc2)cc1` [Compound 121] returned a half-maximal inhibitory concentration (IC50) in data set [1] (Group III) greater than 60 µM.

In data set [1] (Group III), `Fc1ccc(Nc2nc(Nc3ccc(F)cc3)nc(-c3cn(-c4ccccc4-c4nc(-c5ccco5)c(-c5ccco5)o4)nn3)n2)cc1` [Compound 122] came in with an IC50 of 2.4 µM. The “disruption of pre-existing 3-species biofilm” value in data set [2] (time treated 1 h) was 0; in data set [2] (time treated 2 h), 25.71; in data set [2] (time treated 3 h) it was 68.82. Also, the early apoptosis was 4.50 in data set [3] (5 μM, gingival keratinocytes); 5.93 in data set [3] (20 μM, gingival keratinocytes); 7.54 in data set [3] (60 μM, gingival keratinocytes). The late apoptosis is on record as 3.95 in data set [3] (5 μM, gingival keratinocytes); 2.92 in data set [3] (20 μM, gingival keratinocytes); 4.59 in data set [3] (60 μM, gingival keratinocytes). Besides, the live cells in data set [3] (5 μM, gingival keratinocytes) was 88.30; in data set [3] (20 μM, gingival keratinocytes) it was 88.80; in data set [3] (60 μM, gingival keratinocytes), 83.65.

In data set [1] (Group III), `Fc1ccc(Nc2nc(Nc3ccc(F)cc3)nc(-c3cn(-c4cccc(-c5nc(-c6ccco6)c(-c6ccco6)o5)c4)nn3)n2)cc1` [Compound 123] showed a half-maximal inhibitory concentration (IC50) of 8 µM.

In data set [1] (Group III), `Fc1ccc(Nc2nc(Nc3ccc(F)cc3)nc(-c3cn(-c4ccc(-c5nc(-c6ccco6)c(-c6ccco6)o5)cc4)nn3)n2)cc1` [Compound 124] had an IC50 of 7.8 µM.

Take `OO` [Compound H2O2, H2O2, reference compound]: in data set [3] (4 mM 1 h, positive control), the early apoptosis is recorded as 35.60, the late apoptosis was determined as 41.50 and the live cells stood at 11.30.
